The results in this text go back to ChEMBL document CHEMBL4251627, “Structural and biological characterization of new hybrid drugs joining an HDAC inhibitor to different NO-donors” (Eur J Med Chem, 2018).

Calls of active or inactive are those of the source. The rule behind the calls is not given here. Bounds are passed on as bounds.

The IC50 is the point on the concentration scale where inhibition reaches its midpoint. Low readings indicate greater potency, high ones weaker potency. The EC50 is the concentration that produces a half-maximal response. As usually defined, the inhibition is the relative decrease from the control value, in per cent. A low value points to little suppression.

For series [1], the target named is Histone deacetylase 5 (Homo sapiens) (UniProt Q9UQL6). In words: Induction of HDAC5 nuclear translocation in human HaCaT cells at 10 uM after 1 hr by immunofluorescence analysis. It counts as cell-based.
Chain of Histone deacetylase 5 (Homo sapiens) (Q9UQL6 whole entry): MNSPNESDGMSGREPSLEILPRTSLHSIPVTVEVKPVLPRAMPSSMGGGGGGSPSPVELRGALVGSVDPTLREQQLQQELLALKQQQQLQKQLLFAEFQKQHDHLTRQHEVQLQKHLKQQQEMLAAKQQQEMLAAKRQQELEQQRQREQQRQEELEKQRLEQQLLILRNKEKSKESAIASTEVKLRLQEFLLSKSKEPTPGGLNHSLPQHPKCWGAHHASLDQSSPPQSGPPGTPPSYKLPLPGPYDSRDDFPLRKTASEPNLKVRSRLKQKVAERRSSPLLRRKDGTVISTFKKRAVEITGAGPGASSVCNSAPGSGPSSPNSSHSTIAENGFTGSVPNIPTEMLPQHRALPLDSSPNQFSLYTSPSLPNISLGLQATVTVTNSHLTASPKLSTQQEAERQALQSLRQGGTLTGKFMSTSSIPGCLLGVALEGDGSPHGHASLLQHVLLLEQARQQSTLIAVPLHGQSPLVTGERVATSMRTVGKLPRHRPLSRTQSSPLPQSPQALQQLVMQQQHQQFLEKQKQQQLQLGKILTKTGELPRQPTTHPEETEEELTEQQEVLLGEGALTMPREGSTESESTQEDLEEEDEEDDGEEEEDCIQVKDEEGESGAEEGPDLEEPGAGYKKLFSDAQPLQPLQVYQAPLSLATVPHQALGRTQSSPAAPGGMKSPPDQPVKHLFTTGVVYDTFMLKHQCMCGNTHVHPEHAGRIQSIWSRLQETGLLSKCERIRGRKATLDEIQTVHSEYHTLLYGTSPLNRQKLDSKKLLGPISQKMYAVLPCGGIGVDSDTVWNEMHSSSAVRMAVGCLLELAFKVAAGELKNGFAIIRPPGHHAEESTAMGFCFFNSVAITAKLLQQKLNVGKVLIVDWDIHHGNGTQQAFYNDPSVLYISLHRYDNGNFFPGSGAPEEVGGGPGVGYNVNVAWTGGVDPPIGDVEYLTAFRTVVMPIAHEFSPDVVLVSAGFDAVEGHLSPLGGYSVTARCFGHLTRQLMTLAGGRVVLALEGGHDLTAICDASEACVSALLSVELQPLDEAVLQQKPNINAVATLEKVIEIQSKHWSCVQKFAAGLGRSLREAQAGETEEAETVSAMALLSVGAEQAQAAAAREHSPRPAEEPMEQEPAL
Series [2] concerns the target Histone deacetylase 4 (Homo sapiens) (UniProt P56524). Nature of the series: Induction of HDAC4 nuclear translocation in human HaCaT cells at 10 uM after 1 hr by immunofluorescence analysis. Format: cell-based.
Series [3] relates to C2C12. Nature of the series: Induction of skeletal muscle differentiation in mouse C2C12 cells assessed as myotube formation by measuring MHC expression at 0.5 uM after 5 days by DAPI-staining based microscopy. Format: functional, cell-based.
Series [4] deals with T1, Histone deacetylase 2 (Homo sapiens, UniProt Q92769). In words: Induction of HDAC2 S-nitrosylation in human HaCaT cells after 1 hr by immunoprecipitation and Western blot analysis. Format: cell-based. (A western blot detects proteins with antibodies after separation by electrophoresis.)
T1 sequence (Q92769 whole entry): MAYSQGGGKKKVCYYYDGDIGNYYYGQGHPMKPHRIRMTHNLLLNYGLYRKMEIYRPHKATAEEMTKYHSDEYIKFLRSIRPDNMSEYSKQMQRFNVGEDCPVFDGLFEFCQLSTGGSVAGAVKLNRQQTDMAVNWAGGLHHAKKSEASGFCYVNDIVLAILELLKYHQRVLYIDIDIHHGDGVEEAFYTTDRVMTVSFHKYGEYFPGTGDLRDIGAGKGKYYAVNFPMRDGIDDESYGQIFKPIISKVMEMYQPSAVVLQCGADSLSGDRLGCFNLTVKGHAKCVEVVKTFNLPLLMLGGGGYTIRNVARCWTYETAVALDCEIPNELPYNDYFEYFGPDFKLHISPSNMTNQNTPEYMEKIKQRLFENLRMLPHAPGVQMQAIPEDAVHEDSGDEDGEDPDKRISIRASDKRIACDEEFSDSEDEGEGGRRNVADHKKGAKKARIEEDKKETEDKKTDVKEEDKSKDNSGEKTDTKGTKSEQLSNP
A further series concerns HaCaT. Nature of the series: Cytotoxicity against human HaCaT cells assessed as increase in dead cells 0.1 to 100 uM after 72 hrs by Trypan Blue-based assay. Format: cell-based.
Series [5] has as its system C2C12. Nature of the series: Cytotoxicity against mouse C2C12 cells assessed as increase in dead cells 0.5 to 10 uM after 72 hrs by Trypan Blue-based assay. The conditions noted are these: c2c12, 72 h. Format: cell-based.
A further series concerns the target Histone deacetylase 3 (Homo sapiens, UniProt O15379). In words: Inhibition of human FLAG-tagged HDAC3 expressed in HEK293T cells using acetylated lysine side chain as substrate after 1 hr by colorimetric detection based assay. Format: cell-based.
A short description of series [6]: (§1) Activation of soluble guanylyl cyclase in Wistar rat aortic strips assessed as dilation of L-phenylephrine-induced contraction administered 5 mins before contraction by isometric transducer analysis.
The next series relates to Rattus norvegicus. The series is described as §1.
A short description of series [7]: Activation of soluble guanylyl cyclase in Wistar rat aortic strips assessed as dilation of L-phenylephrine-induced contraction administered 5 mins before contraction in presence of ODQ by isometric transducer analysis.
Series [8] addresses T1, Histone deacetylase 2. In words: Inhibition of FLAG-tagged HDAC2 (unknown origin) expressed in HEK293T cells using acetylated lysine side chain as substrate after 1 hr by colorimetric detection based assay. It counts as cell-based.
The target of series [9] is Histone deacetylase (Homo sapiens) (UniProt Q13547+O15379+Q9UBN7+Q92769+Q9UQL6+Q8WUI4+Q9BY41+Q96DB2+P56524+Q9UKV0+Q969S8). Nature of the series: Inhibition of HDAC in human HaCaT cells at 10 uM using acetylated lysine side chain as substrate incubated for 1 hr by colorimetric detection based assay relative to control. Format: cell-based.
Series [10] in a line: Drug metabolism in human HaCaT cells assessed as induction of NO release at 10 uM by DAF-2D-based FACS analysis. Conditions: TDE = time-dependent effect. It counts as ADME, cell-based.
A further series addresses Histone deacetylase 1 (Homo sapiens, UniProt Q13547). In words: Inhibition of human FLAG-tagged HDAC1 expressed in HEK293T cells using acetylated lysine side chain as substrate after 1 hr by colorimetric detection based assay.
Series [11] relates to C2C12. In words: Induction of skeletal muscle differentiation in mouse C2C12 cells assessed as increase in myoblast fusion by measuring MyoM expression at 0.5 uM after 5 days by qRT-PCR analysis. Format: functional, cell-based. (In general: Quantitative PCR measures a nucleic acid by following its amplification.)
Series [12] deals with C2C12. Nature of the series: Induction of skeletal muscle differentiation in mouse C2C12 cells assessed as induction of multinucleated fibers at 0.5 uM after 5 days by DAPI-staining based microscopy. Format: functional, cell-based.
Series [13] is described as follows: Drug metabolism in human HaCaT cells assessed as induction of NO release at 10 uM after 1 hr by DAF-2D-based FACS analysis. Format: ADME, cell-based. A general note: In flow cytometry, cells or beads pass a laser one at a time.
The nature of series [14]: Drug metabolism in human HaCaT cells assessed as induction of NO release at 50 to 100 uM after 1 hr by DAF-2D-based FACS analysis. Format: ADME, cell-based.

Chain of Histone deacetylase 1 (Q13547 whole entry, the tested form may be a part): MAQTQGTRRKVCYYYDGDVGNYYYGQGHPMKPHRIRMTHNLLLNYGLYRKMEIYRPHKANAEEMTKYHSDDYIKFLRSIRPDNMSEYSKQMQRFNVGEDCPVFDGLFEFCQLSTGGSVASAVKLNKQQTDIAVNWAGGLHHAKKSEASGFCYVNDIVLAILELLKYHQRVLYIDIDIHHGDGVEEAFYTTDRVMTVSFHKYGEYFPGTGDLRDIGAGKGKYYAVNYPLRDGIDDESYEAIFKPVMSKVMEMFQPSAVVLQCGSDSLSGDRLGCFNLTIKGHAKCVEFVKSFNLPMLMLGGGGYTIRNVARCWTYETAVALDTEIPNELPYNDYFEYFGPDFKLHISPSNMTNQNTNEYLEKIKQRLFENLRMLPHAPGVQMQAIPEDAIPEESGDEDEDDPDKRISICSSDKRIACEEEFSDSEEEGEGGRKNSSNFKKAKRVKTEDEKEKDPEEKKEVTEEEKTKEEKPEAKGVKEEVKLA
Chain of Histone deacetylase 4 (Homo sapiens) (P56524 whole entry): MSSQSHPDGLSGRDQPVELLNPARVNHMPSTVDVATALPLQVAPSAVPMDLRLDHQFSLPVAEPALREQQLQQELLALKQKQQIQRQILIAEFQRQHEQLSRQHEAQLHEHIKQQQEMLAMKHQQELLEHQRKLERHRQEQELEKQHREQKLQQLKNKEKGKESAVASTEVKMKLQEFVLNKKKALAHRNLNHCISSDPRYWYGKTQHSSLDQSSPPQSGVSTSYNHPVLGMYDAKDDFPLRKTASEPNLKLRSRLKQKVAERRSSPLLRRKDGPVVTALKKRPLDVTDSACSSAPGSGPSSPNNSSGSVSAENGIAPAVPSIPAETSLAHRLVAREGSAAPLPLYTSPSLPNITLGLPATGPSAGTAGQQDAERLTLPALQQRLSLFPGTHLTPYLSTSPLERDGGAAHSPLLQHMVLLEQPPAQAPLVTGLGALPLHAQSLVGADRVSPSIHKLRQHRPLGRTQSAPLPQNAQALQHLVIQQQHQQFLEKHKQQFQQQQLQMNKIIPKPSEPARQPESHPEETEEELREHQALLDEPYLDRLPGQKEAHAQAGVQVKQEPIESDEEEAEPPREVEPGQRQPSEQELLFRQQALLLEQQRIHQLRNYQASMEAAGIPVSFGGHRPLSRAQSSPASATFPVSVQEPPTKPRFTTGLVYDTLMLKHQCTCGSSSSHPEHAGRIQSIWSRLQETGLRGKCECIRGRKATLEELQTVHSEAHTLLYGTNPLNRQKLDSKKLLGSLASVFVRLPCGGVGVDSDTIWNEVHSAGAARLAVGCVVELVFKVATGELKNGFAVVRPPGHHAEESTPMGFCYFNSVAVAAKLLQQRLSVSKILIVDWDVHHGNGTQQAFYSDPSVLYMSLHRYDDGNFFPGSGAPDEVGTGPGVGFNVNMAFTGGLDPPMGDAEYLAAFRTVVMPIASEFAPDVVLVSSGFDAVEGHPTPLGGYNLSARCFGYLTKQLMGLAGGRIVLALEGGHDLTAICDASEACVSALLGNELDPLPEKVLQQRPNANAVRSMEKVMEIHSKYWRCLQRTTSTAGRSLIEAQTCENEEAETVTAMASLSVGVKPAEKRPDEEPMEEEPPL
Chain of Histone deacetylase 3 (O15379 whole entry): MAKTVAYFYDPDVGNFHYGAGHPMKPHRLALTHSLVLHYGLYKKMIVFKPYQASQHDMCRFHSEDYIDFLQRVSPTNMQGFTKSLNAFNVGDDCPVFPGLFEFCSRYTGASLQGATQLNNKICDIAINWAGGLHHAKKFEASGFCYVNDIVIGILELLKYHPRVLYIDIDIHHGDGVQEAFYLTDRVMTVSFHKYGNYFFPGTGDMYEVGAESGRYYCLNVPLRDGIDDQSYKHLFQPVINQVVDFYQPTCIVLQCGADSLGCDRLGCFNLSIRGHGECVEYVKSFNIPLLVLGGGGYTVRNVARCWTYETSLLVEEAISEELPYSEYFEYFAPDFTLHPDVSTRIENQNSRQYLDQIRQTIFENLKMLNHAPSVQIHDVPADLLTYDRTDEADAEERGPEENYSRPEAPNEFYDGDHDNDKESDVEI

For the molecule `Nc1ccccc1NC(=O)c1ccc(CNC(=O)OCc2ccc(OCCOc3no[n+]([O-])c3S(=O)(=O)c3ccccc3)nc2)cc1`, the result (in [1]; in series [2]; in the series with C2C12 [3]; on Histone deacetylase 2 [4]) was Active. Besides, the results for the Activity result in the series on HaCaT, with C2C12 [5] and in the series on Rattus norvegicus were “Non-Toxic”, “Non-Toxic” and “Dose-dependent effect”, respectively. Further, the half-maximal inhibitory concentration (IC50) turned out to be 1190 nM against Histone deacetylase 3, 370 nM against Histone deacetylase 2 [8] and 1020 nM against Histone deacetylase 1. The half-maximal effective concentration (EC50) amounted to 31 nM in series [6] and 350 nM in [7]. The same molecule returned an inhibition in series [9] of 20 to 50%. Moreover, the Drug metabolism entry in series [10] was “Tde”.
Consider `CN(Cc1ccc(COC(=O)NCc2ccc(C(=O)Nc3ccccc3N)cc2)cn1)Cc1no[n+]([O-])c1C#N`, for which the outcome on Histone deacetylase 2 [4] was Active. The EC50 stood at 24 nM in series [6] and 960 nM in series [7]. The Activity entry in the series on Rattus norvegicus was “Dose-dependent effect”. This molecule gave an inhibition in series [9] of 20 to 50%.
Consider `CN(CCCCC(CO[N+](=O)[O-])O[N+](=O)[O-])Cc1ccc(COC(=O)NCc2ccc(C(=O)Nc3ccccc3N)cc2)cn1.Cl.Cl.Cl` (centres undefined), for which the outcome (in series [1]; in series [2]; in the series with C2C12 [3]; at Histone deacetylase 2 [4]; with C2C12 [11]; with C2C12 [12]) was Active. Also, the results for the Activity entry in the series with HaCaT, in the series on C2C12 [5] and with Rattus norvegicus were “Non-Toxic”, “Non-Toxic” and “Dose-dependent effect”, respectively. Moreover, the IC50 amounted to 1220 nM against Histone deacetylase 3, 390 nM against Histone deacetylase 2 [8] and 1040 nM against Histone deacetylase 1. Also, the EC50 in [6] was found to be 290 nM; in series [7], 11000 nM. Moreover, the Drug metabolism entry in series [13] is “Metabolite_Detected”. For the same molecule, the inhibition in series [9] lay within 20 to 50%.
On to `COCCOc1no[n+]([O-])c1S(=O)(=O)c1ccccc1`, for which the EC50 is 4.5 nM in [6] and 430 nM in series [7]. Also, in the series on Rattus norvegicus, the Activity result is “Dose-dependent effect”.
For `Nc1ccccc1NC(=O)c1ccc(CNC(=O)OCc2ccc(OCCOc3no[n+]([O-])c3-c3ccccc3)nc2)cc1`, the half-maximal effective concentration (EC50) in series [6] was 3400 nM; in [7], over 100000 nM. Also, the Activity result with Rattus norvegicus is “Dose-dependent effect”. For the same molecule, in series [13], the Drug metabolism result is given as “Metabolite_Detected”. Moreover, the inhibition in [9] is 20 to 50%.
For `Nc1ccccc1NC(=O)c1ccc(CNC(=O)OCc2cccnc2)cc1` [ENTINOSTAT], the Activity entry with HaCaT and in the series on C2C12 [5] was “Toxic” throughout.
Turning to `CN(Cc1ccc(COC(=O)NCc2ccc(C(=O)Nc3ccccc3N)cc2)cn1)Cc1no[n+]([O-])c1C(N)=O.Cl.Cl.Cl`, the results for the EC50 in series [6] and in series [7] were 3400 nM and 63000 nM, respectively. The Activity entry in the series on Rattus norvegicus is “Dose-dependent effect”. Further, the Drug metabolism entry in series [14] and in series [13] was “Metabolite_Notdetected” throughout. In addition, the inhibition in [9] was 20 to 50%.
With `CN(C)CCCCC(CO[N+](=O)[O-])O[N+](=O)[O-]` (centres undefined), the EC50 is 800 nM in series [6] and over 100000 nM in series [7]. In addition, the Activity entry in the series on Rattus norvegicus was “Dose-dependent effect”.
Regarding `CN(CCCO[N+](=O)[O-])Cc1ccc(COC(=O)NCc2ccc(C(=O)Nc3ccccc3N)cc2)cn1.Cl.Cl.Cl`, the EC50 in series [6] was 2600 nM; in series [7] it was 44000 nM. In addition, in the series with Rattus norvegicus, the Activity entry is “Dose-dependent effect”. The Drug metabolism entry in series [13] is given as “Metabolite_Notdetected”. The inhibition in series [9] lay within 20 to 50%.
